One test relates to IDO protein. Put plainly: Inhibitory effect on IDO protein expression, Western blotting. Format: cell-based. To be noted: human stomach cancer line NCI-N87; IFNγ 100 U/mL; 0.001, 0.01, 0.1 and 1 μM; 24 hours; FIG. 1. Here is the method:
Protein expression was detected by a Western blotting method. A human stomach cancer line NCI-N87 (CRL-5822) was purchased from American Type Culture Collection (ATCC). The cells were cultured in RPMI1640 (Wako Pure Chemical Industries, Ltd.) medium supplemented with 10% fetal bovine serum (FBS). The cells were seeded in a 6-well plate (#140675, Nunc) at 1×10^6 cells per well. The cells were cultured in a 5% CO2 incubator at 37° C. for 24 hours, INFγ (PeproTech, Inc.) at 100 U/mL and test substances [tanespimycin (Biotrend), ganetespib, BIIBO21 and Compound 1] in amounts of 0.001 μM, 0.01 μM, 0.1 μM and 1 μM each were then added, and the cells were further cultured for 24 hours. After the culturing, the cells were washed with ice-cooled PBS, and the cells were then lysed with a cytolytic agent. The cell lysate solution was centrifuged, and the soluble fraction was then removed, and subjected to thermal denaturation, followed by protein separation by SDS-PAGE.
10-fold dilution of TBST (Santa Cruz) with Milli-Q water was used as a washing solution, and the TBST solution containing 5% Blocking One (nacalai tesque) was used as an antibody diluting solution.
After completion of SDS-PAGE, the protein was transferred to a PVDF membrane (Trans-Blot Turbo Midi PVDF Transfer Pack, Biorad) by using a blotting device (Trans-Blot Turbo Transfer System, Biorad). The membrane after the transfer was blocked by incubation at room temperature for 60 minutes or more with Blocking One. […] The PVDF membrane was washed three times with the washing solution, and then immersed in SuperSignal West Pico Chemiluminescent Substrate (Thermo Scientific) for detection of GAPDH, or SuperSignal West Dura Extended Duration Substrate (Thermo Scientific) for detection of IDO, and chemiluminescence was detected by using Image Analyzer Amersham Imager 600QC (GE Healthcare Japan Corporation).
On the technique in general: In western blotting, separated proteins are transferred to a membrane and probed.

Another test deals with GIST-T1. Put plainly: Cell growth inhibition, CellTiter-Glo2.0 Assay, IFNγ added. The class given is cell-based. To be noted: Homo sapiens, GISTT1, IFNγ 100 U/mL, 72 hours, number of surviving cells reduced to 50% of control. Here is the method:
(§1) Human stomach cancer line NCI-N87 (CRL-5822), human lung cancer line NCI-H1975 (CRL-5908) and human lung cancer line HCC827 (CRL-2868) were purchased from ATCC, and human gastrointestinal stromal tumor line GIST-T1 (GIST01) was purchased from Cosmo Bio Co., Ltd. NCI-N87, NCI-H1975 and HCC827 were cultured in RPM11640 (Wako Pure Chemical Industries, Ltd.) medium supplemented with 10% FBS, and GIST-T1 was cultured in DMEM (Wako Pure Chemical Industries, Ltd.) medium supplemented with 10% FBS. The IDO protein and GAPDH were detected in the same manner as in Example 1 described above.
(§2) The amount of ATP generated from surviving cells was determined by CellTiter-Glo2.0 Assay (# G9243, Promega Corporation) to evaluate the cell growth inhibition ability of test substance. The cells of GIST-T1, HCC827, NCI-H1975 and NCI-N87 were seeded in 96-well plates (#165305, Thermo Scientific) at 1×10^4 (NCI-N87), 2×10^3 (HCC827 and HCI-H1975) and 3×10^3 (GIST-T1) per well, and cultured in a 5% CO2 incubator at 37° C. for 24 hours. After the culturing for 24 hours, INFγ (PeproTech) at 100 U/mL and a test substance (Compound 1) in amounts of 0.001 μM, 0.003 μM, 0.01 μM, 0.03 μM, 0.1 μM, 0.3 μM, 1 μM, 3 μM and 10 μM each were added, and further cultured for 72 hours. Equivalent amount of CellTiter-Glo2.0 Assay reagent as the medium was added to each well, the mixture was stirred for 2 minutes using a shaker under shading condition, and the plate was then left to stand at room temperature for about 10 minutes. The intensity of luminescence was measured using a microplate reader (EnSpire™ Multimode Plate Reader, PerkinElmer Japan Co., Ltd.), and used as an index of the number of surviving cells in each well. Using the intensity of luminescence of a group not treated with a test substance (control group) as a control, the cell survival rate (%) was calculated by using the following equation. From the obtained survival rate, the concentration (IC50 (μM)), at which the number of surviving cells is reduced to 50% of the control, was determined by a curve fitting regression analysis tool using Regression Analysis Tool XLfit5.3.0.8 (IDBS Ltd.).
(§3) Cell survival rate=T/C×100
(§4) T: Amount of luminescence in wells with a test substance
(§5) C: Amount of luminescence in wells with no test substance
(In general: ATP-based viability assays read luminescence as a measure of living cells.)

In the next test the test system is HCC827. The description is as above. The class given is cell-based. To be noted: Homo sapiens, IFNγ 100 U/mL, 72 hours, number of surviving cells reduced to 50% of control. Here is the method: as §1, §2, §3, §4, §5
A further test concerns NCI-H1975. The description is as above. Format: cell-based. The following applies: Homo sapiens, IFNγ 100 U/mL, 72 hours, number of surviving cells reduced to 50% of control. Here is the method: as §1, §2, §3, §4, §5
The next test relates to NCI-N87. The test is described as above. The following applies: Homo sapiens, IFNγ 100 U/mL, 72 hours, number of surviving cells reduced to 50% of control. Format: cell-based. The method, then:
as §1, §2, §3, §4, §5

The subject of test [1] is cells expressing IDO due to addition of IFNγ (IDO-positive cells). Put plainly: Suppressive effect on growth in IDO-positive cells (all four lines, result in words). The class given is cell-based, human. To be noted: GIST-T1, HCC827, NCI-H1975, NCI-N87 with IFNγ 100 U/mL; 0.001-10 μM; 72 hours; FIG. 3. The method, then:
as §1
The amount of ATP generated from surviving cells was determined by CellTiter-Glo2.0 Assay (# G9243, Promega Corporation) to evaluate the cell growth inhibition ability of test substance. […] The intensity of luminescence was measured using a microplate reader (EnSpire™ Multimode Plate Reader, PerkinElmer Japan Co., Ltd.), and used as an index of the number of surviving cells in each well. Using the intensity of luminescence of a group not treated with a test substance (control group) as a control, the cell survival rate (%) was calculated by using the following equation. […]

Regarding `COc1c(C)cnc(Cn2cnc3c(Cl)nc(N)nc32)c1C` [BIIBO21], the “inhibitory effect on IDO expression” value with IDO protein is given as “inhibitory effect on IDO expression in a concentration-dependent manner”.
One may read the IC50 as the point on the concentration scale where inhibition reaches its midpoint. Low readings indicate higher potency, high ones lower potency. `CCc1cc(C(N)=O)ccc1-n1nc(C(C)C)c2c(-n3cnc(-c4cnn(C)c4)c3)ccnc21` [Compound 1, 3-ethyl-4-{3-isopropyl-4-(4-(1-methyl-1H-pyrazol-4-yl)-1H-imidazol-1-yl)-1H-pyrazolo[3,4-b]pyridin-1-yl}benzamide]: the “inhibitory effect on IDO expression” value in the test on IDO protein is “inhibitory effect on IDO expression in a concentration-dependent manner”. Moreover, the IC50 turned out to be 270 nM in the test on GIST-T1, 1420 nM with HCC827, 810 nM in the test on NCI-H1975 and 380 nM in the test with NCI-N87. For the same molecule, the “suppressive effect on cell growth” value in test [1] is “suppressive effect on cell growth in a concentration-dependent manner”.
On to `CC(C)c1cc(-c2n[nH]c(=O)n2-c2ccc3c(ccn3C)c2)c(O)cc1O` [ganetespib], for which the “inhibitory effect on IDO expression” value in the test on IDO protein is reported as “inhibitory effect on IDO expression in a concentration-dependent manner”.

The record behind these values is patent US20200281904A1, “PROPHYLACTIC AND/OR THERAPEUTIC AGENT FOR DISEASES INVOLVING IDO EXPRESSION” (TAIHO PHARMACEUTICAL CO., LTD., priority 2017, published 2020).
